Assay results taken from patent US8568755B2 (priority 2007, dated 2013).
Where “and” joins values, the source holds several entries; their conditions need not be identical. Equal values may be shown once. Where a name gives a salt, the structure may show the parent alone. Read-outs that look alike come from different tables or passages of the source.

Legend:
Sphaerotheca fuliginea = assay type: in vivo
Erysiphe graminis = assay: Test on preventive effect against wheat powdery mildew (Test Example 1); assay type: in vivo
[1] = partner fungicide alone 125 ppm
[2] = partner fungicide alone 250 ppm
[3] = partner fungicide alone 500 ppm

CON=C(C(=O)OC)c1ccccc1CON=C(C)c1cccc(C(F)(F)F)c1 [trifloxystrobin]
diseased area ratio to non-treated section (Sphaerotheca fuliginea; partner fungicide alone 4 ppm): 85.0 | diseased area ratio to non-treated section (Sphaerotheca fuliginea; partner fungicide alone 200 ppm): 50.0 | diseased area ratio to non-treated section (experimental value) (Sphaerotheca fuliginea; single use at 4 ppm): 85.0 | diseased area ratio to non-treated section (experimental value) (Sphaerotheca fuliginea; single use at 200 ppm): 50.0

Cc1cc(O)no1 [hymexazol]
diseased area ratio to non-treated section (Sphaerotheca fuliginea; partner fungicide alone 100 ppm): 95.0

Cc1cccc2sc3nncn3c12 [tricyclazole]
diseased area ratio to non-treated section (Erysiphe graminis; fungicide (b) alone 50 ppm): 22.5 | diseased area ratio to non-treated section (Erysiphe graminis; fungicide (b) alone 500 ppm): 50.0

O=C1c2ccccc2C(=O)N1SC(Cl)(Cl)Cl [folpet]
diseased area ratio to non-treated section (Sphaerotheca fuliginea; [1]): 84.4 | diseased area ratio to non-treated section (Sphaerotheca fuliginea; [2]): 84.4 | diseased area ratio to non-treated section (Sphaerotheca fuliginea; [3]): 81.3

S1SSSSSSS1 [sulfur]
diseased area ratio to non-treated section (Erysiphe graminis; fungicide (b) alone 50 ppm): 97.5 | diseased area ratio to non-treated section (Erysiphe graminis; fungicide (b) alone 500 ppm): 40.0

CC#Cc1cc(C)nc(Nc2ccccc2)n1 [mepanipyrim]
diseased area ratio to non-treated section (Sphaerotheca fuliginea; partner fungicide alone 63 ppm): 0.5 | diseased area ratio to non-treated section (Sphaerotheca fuliginea; [1]): 0.5

C[C@H]1O[C@H](O[C@H]2[C@H](O)[C@@H](O)[C@@H](O)[C@H](O)[C@@H]2O)[C@@H](N)C[C@@H]1NC(=N)C(=O)O [kasugamycin]
diseased area ratio to non-treated section (Erysiphe graminis; fungicide (b) alone 50 ppm): 97.5 | diseased area ratio to non-treated section (Erysiphe graminis; fungicide (b) alone 500 ppm): 55.0

CC12CC1(C)C(=O)N(c1cc(Cl)cc(Cl)c1)C2=O (stereo not shown) [procymidone]
diseased area ratio to non-treated section (Sphaerotheca fuliginea; [1]): 85.0 | diseased area ratio to non-treated section (Sphaerotheca fuliginea; [2]): 82.5 | diseased area ratio to non-treated section (Sphaerotheca fuliginea; [3]): 70.0

COc1cc(C)c(C(=O)c2c(OC)cnc(Cl)c2C(F)(F)F)c(OC)c1OC [Compound B, 4-(2,3,4-trimethoxy-6-methylbenzoyl)-2-chloro-3-trifluoromethyl-5-methoxypyridine]
diseased area ratio to non-treated section (Erysiphe graminis; partner fungicide alone 0.125 ppm): 50.0 | diseased area ratio to non-treated section (Erysiphe graminis; partner fungicide alone 0.5 ppm): 30.0

CO/C=C(/C(=O)OC)c1ccccc1Oc1cc(Oc2ccccc2C#N)ncn1 [azoxystrobin]
diseased area ratio to non-treated section (Sphaerotheca fuliginea; partner fungicide alone 31 ppm): 37.5 and 55.0 | diseased area ratio to non-treated section (Sphaerotheca fuliginea; partner fungicide alone 63 ppm): 35.0 and 55.0 | diseased area ratio to non-treated section (Sphaerotheca fuliginea; [1]): 35.0

N=C(N)NCCCCCCCCNCCCCCCCCNC(=N)N [iminoctadine]
diseased area ratio to non-treated section (Sphaerotheca fuliginea; partner fungicide alone 4 ppm): 65.0 | diseased area ratio to non-treated section (Sphaerotheca fuliginea; partner fungicide alone 8 ppm): 45.0 | diseased area ratio to non-treated section (Sphaerotheca fuliginea; partner fungicide alone 16 ppm): 30.0

COC(=O)N(OC)c1ccccc1COc1ccn(-c2ccc(Cl)cc2)n1 [pyraclostrobin]
diseased area ratio to non-treated section (experimental value) (Sphaerotheca fuliginea; single use at 100 ppm): 100

CC(C)NC(=O)N1CC(=O)N(c2cc(Cl)cc(Cl)c2)C1=O [iprodione]
diseased area ratio to non-treated section (Sphaerotheca fuliginea; [1]): 60.0 | diseased area ratio to non-treated section (Sphaerotheca fuliginea; [2]): 45.0 | diseased area ratio to non-treated section (Sphaerotheca fuliginea; [3]): 45.0

C/C=C/C(=O)Oc1c(C(C)CCCCCC)cc([N+](=O)[O-])cc1[N+](=O)[O-] (stereo not shown) [meptyldinocap]
diseased area ratio to non-treated section (experimental value) (Sphaerotheca fuliginea; single use at 3 ppm): 2.5

Fc1ccc(Oc2ccnc3cc(Cl)cc(Cl)c23)cc1 [quinoxyfen]
diseased area ratio to non-treated section (Erysiphe graminis; fungicide (b) alone 0.06 ppm): 80.0 | diseased area ratio to non-treated section (Erysiphe graminis; fungicide (b) alone 0.125 ppm): 77.5

CCCOC(=O)NCCCN(C)C [propamocarb hydrochloride]
diseased area ratio to non-treated section (experimental value) (Sphaerotheca fuliginea; single use at 10 ppm): 95.0 | diseased area ratio to non-treated section (experimental value) (Sphaerotheca fuliginea; single use at 100 ppm): 95.0 | diseased area ratio to non-treated section (experimental value) (Sphaerotheca fuliginea; single use at 1000 ppm): 92.5

CNC(=O)/C(=N/OC)c1ccccc1COc1cc(C)ccc1C [dimoxystrobin]
diseased area ratio to non-treated section (Erysiphe graminis; fungicide (b) alone 5 ppm): 5.0

CCCN(CC)CC1COC2(CCC(C(C)(C)C)CC2)O1 (stereo not shown) [spiroxamine]
diseased area ratio to non-treated section (Erysiphe graminis; fungicide (b) alone 12.5 ppm): 97.0 | diseased area ratio to non-treated section (Erysiphe graminis; fungicide (b) alone 25 ppm): 15.2 | diseased area ratio to non-treated section (Erysiphe graminis; fungicide (b) alone 50 ppm): 6.1

CC(C)Oc1cccc(NC(=O)c2ccccc2C(F)(F)F)c1 [flutolanil]
diseased area ratio to non-treated section (Erysiphe graminis; fungicide (b) alone 500 ppm): 7.5 | diseased area ratio to non-treated section (Erysiphe graminis; fungicide (b) alone 1000 ppm): 12.5

COC(=O)NC(=S)Nc1ccccc1NC(=S)NC(=O)OC [thiophanate-methyl]
diseased area ratio to non-treated section (Sphaerotheca fuliginea; partner fungicide alone 63 ppm): 75.0 | diseased area ratio to non-treated section (Sphaerotheca fuliginea; [1]): 65.0

COP(=S)(OC)Oc1c(Cl)cc(C)cc1Cl [tolclofosmethyl]
diseased area ratio to non-treated section (experimental value) (Sphaerotheca fuliginea; single use at 100 ppm): 80.0

mancozeb
diseased area ratio to non-treated section (Sphaerotheca fuliginea; [1]): 50.0 | diseased area ratio to non-treated section (Sphaerotheca fuliginea; [2]): 31.3

Cc1ccsc1C(=O)NC(C)(C)C(=O)c1ccc(Cl)c(Cl)c1 [No. 2]
diseased area ratio to non-treated section (Sphaerotheca fuliginea; Compound No.x alone 2 ppm): 70.0 | diseased area ratio to non-treated section (Sphaerotheca fuliginea; Compound No.x alone 4 ppm): 50.0 and 32.5

CC(C)Oc1ccc(C(=O)C(C)(C)NC(=O)c2ncccc2C(F)(F)F)cc1 [No. 7]
diseased area ratio to non-treated section (Sphaerotheca fuliginea; Compound No.x alone 1 ppm): 81.3 | diseased area ratio to non-treated section (Sphaerotheca fuliginea; Compound No.x alone 2 ppm): 75.0 | diseased area ratio to non-treated section (Sphaerotheca fuliginea; Compound No.x alone 4 ppm): 56.3

potassium phosphite
diseased area ratio to non-treated section (experimental value) (Sphaerotheca fuliginea; single use at 100 ppm): 85.0 | diseased area ratio to non-treated section (experimental value) (Sphaerotheca fuliginea; single use at 500 ppm): 80.0
